Results as given in patent US9693556B2, “Herbicidal pyridazinone derivatives” (SYNGENTA LIMITED, priority 2011, dated 2017).

Legend:
Assay type in all cases: in vivo
[1] = system: Ipomoea hederacea (IPOHE); experiment: Post-emergence herbicidal glasshouse test on Ipomoea hederacea; settings: post-emergence, 1000 g/h, evaluated after 13 days
How it was run: (§1)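 Scoring scale: 5=80-100%, 4=60-79%, 3=40-59%, 2=20-39%, 1=0-19% damage, assessed on day 13. Compound sprayed at 1000 g/h on soil-grown plants (day 1 pre-, day 8 post-emergence) kept at 24/16 °C, 14 h light.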

[2] = system: Amaranthus retoflexus (AMARE); experiment: Pre-emergence herbicidal glasshouse test on Amaranthus retoflexus; settings: pre-emergence, 1000 g/h, evaluated after 13 days
How it was run: as §1

[3] = system: Amaranthus retoflexus (AMARE); experiment: Post-emergence herbicidal glasshouse test on Amaranthus retoflexus; settings: post-emergence, 1000 g/h, evaluated after 13 days
How it was run: as §1

Setaria faberi (SETFA) [4] = experiment: Pre-emergence herbicidal glasshouse test on Setaria faberi; settings: pre-emergence, 1000 g/h, evaluated after 13 days
How it was run: as §1

Setaria faberi (SETFA) [5] = experiment: Post-emergence herbicidal glasshouse test on Setaria faberi; settings: post-emergence, 1000 g/h, evaluated after 13 days
How it was run: as §1

Solanum nigrum (SOLNI) [6] = experiment: Pre-emergence herbicidal glasshouse test on Solanum nigrum; settings: pre-emergence, 1000 g/h, evaluated after 13 days
How it was run: as §1

[7] = system: Alopecurus myosuroides (ALOMY); experiment: Post-emergence herbicidal glasshouse test on Alopecurus myosuroides; settings: post-emergence, 1000 g/h, evaluated after 13 days
How it was run: as §1

Solanum nigrum (SOLNI) [8] = experiment: Post-emergence herbicidal glasshouse test on Solanum nigrum; settings: post-emergence, 1000 g/h, evaluated after 13 days
How it was run: as §1

[9] = system: Echinochloa crus-galli (ECHCG); experiment: Post-emergence herbicidal glasshouse test on Echinochloa crus-galli; settings: post-emergence, 1000 g/h, evaluated after 13 days
How it was run: as §1

[10] = system: Ipomoea hederacea (IPOHE); experiment: Pre-emergence herbicidal glasshouse test on Ipomoea hederacea; settings: pre-emergence, 1000 g/h, evaluated after 13 days
How it was run: as §1

[11] = system: Echinochloa crus-galli (ECHCG); experiment: Pre-emergence herbicidal glasshouse test on Echinochloa crus-galli; settings: pre-emergence, 1000 g/h, evaluated after 13 days
How it was run: as §1

[12] = system: Alopecurus myosuroides (ALOMY); experiment: Pre-emergence herbicidal glasshouse test on Alopecurus myosuroides; settings: pre-emergence, 1000 g/h, evaluated after 13 days
How it was run: as §1

Structure (SMILES) | POST Application IPOHE herbicidal damage (five point scale) [1] | PRE Application AMARE herbicidal damage (five point scale) [2] | POST Application AMARE herbicidal damage (five point scale) [3] | PRE Application SETFA herbicidal damage (five point scale) (Setaria faberi (SETFA) [4]) | POST Application SETFA herbicidal damage (five point scale) (Setaria faberi (SETFA) [5]) | PRE Application SOLNI herbicidal damage (five point scale) (Solanum nigrum (SOLNI) [6]) | POST Application ALOMY herbicidal damage (five point scale) [7] | POST Application SOLNI herbicidal damage (five point scale) (Solanum nigrum (SOLNI) [8]) | POST Application ECHCG herbicidal damage (five point scale) [9] | PRE Application IPOHE herbicidal damage (five point scale) [10] | PRE Application ECHCG herbicidal damage (five point scale) [11] | PRE Application ALOMY herbicidal damage (five point scale) [12] | further results
C#CCn1ncc(-c2ccc(S(C)(=O)=O)c(C3=NOCC3)c2C)c(O)c1=O [Compound 1.163] |  |  |  |  |  |  |  |  |  |  |  |  | herbicidal damage, POST Application IPOHE ([1]; five point scale): 5 (5=80-100% damage); herbicidal damage, PRE Application AMARE ([2]; five point scale): 5 (5=80-100% damage); herbicidal damage, POST Application AMARE ([3]; five point scale): 5 (5=80-100% damage); herbicidal damage, PRE Application SETFA (Setaria faberi (SETFA) [4]; five point scale): 5 (5=80-100% damage); herbicidal damage, POST Application SETFA (Setaria faberi (SETFA) [5]; five point scale): 5 (5=80-100% damage); herbicidal damage, PRE Application SOLNI (Solanum nigrum (SOLNI) [6]; five point scale): 5 (5=80-100% damage); herbicidal damage, POST Application ALOMY ([7]; five point scale): 5 (5=80-100% damage); herbicidal damage, POST Application SOLNI (Solanum nigrum (SOLNI) [8]; five point scale): 5 (5=80-100% damage); herbicidal damage, POST Application ECHCG ([9]; five point scale): 5 (5=80-100% damage); herbicidal damage, PRE Application IPOHE ([10]; five point scale): 4 (4=60-79% damage); herbicidal damage, PRE Application ECHCG ([11]; five point scale): 5 (5=80-100% damage); herbicidal damage, PRE Application ALOMY ([12]; five point scale): 5 (5=80-100% damage)
Cn1ncc(-n2ccc(C(F)(F)F)c(-c3cccc(S(C)(=O)=O)c3)c2=O)c(O)c1=O [Compound 7.023] | 1 (1=0-19% damage) | 5 (5=80-100% damage) | 5 (5=80-100% damage) | 4 (4=60-79% damage) | 4 (4=60-79% damage) | 5 (5=80-100% damage) | 1 (1=0-19% damage) | 5 (5=80-100% damage) | 4 (4=60-79% damage) | 2 (2=20-39% damage) | 2 (2=20-39% damage) | 2 (2=20-39% damage) | 
Cn1ncc(-c2cccn(-c3cccc(F)c3)c2=O)c(O)c1=O [Compound 1.148] | 3 (3=40-59% damage) | 1 (1=0-19% damage) | 2 (2=20-39% damage) | 1 (1=0-19% damage) | 4 (4=60-79% damage) | 1 (1=0-19% damage) | 1 (1=0-19% damage) | 3 (3=40-59% damage) | 2 (2=20-39% damage) | 2 (2=20-39% damage) | 1 (1=0-19% damage) | 1 (1=0-19% damage) | 
CCOc1nn(C)c(=O)c(O)c1-c1ccc(C(F)(F)F)cc1S(C)(=O)=O [Compound 2.050] | 5 (5=80-100% damage) | 5 (5=80-100% damage) | 5 (5=80-100% damage) | 5 (5=80-100% damage) | 5 (5=80-100% damage) | 5 (5=80-100% damage) | 5 (5=80-100% damage) | 5 (5=80-100% damage) | 5 (5=80-100% damage) | 5 (5=80-100% damage) | 5 (5=80-100% damage) | 5 (5=80-100% damage) | 
Cc1cc(F)ccc1-c1cnn(C)c(=O)c1O [Compound 1.093] | 1 (1=0-19% damage) | 1 (1=0-19% damage) | 1 (1=0-19% damage) | 1 (1=0-19% damage) | 1 (1=0-19% damage) | 1 (1=0-19% damage) | 1 (1=0-19% damage) | 2 (2=20-39% damage) | 1 (1=0-19% damage) | 1 (1=0-19% damage) | 1 (1=0-19% damage) | 1 (1=0-19% damage) | 
CCCS(=O)(=O)Oc1c(-c2ccc(C(F)(F)F)cc2S(C)(=O)=O)cnn(C)c1=O [Compound 3.005, [2-methyl-5-[2-methylsulfonyl-4-(trifluoromethyl)phenyl]-3-oxo-pyridazin-4-yl]propane-1-sulfonate] | 5 (5=80-100% damage) | 5 (5=80-100% damage) | 5 (5=80-100% damage) | 5 (5=80-100% damage) | 5 (5=80-100% damage) | 5 (5=80-100% damage) | 5 (5=80-100% damage) | 5 (5=80-100% damage) | 5 (5=80-100% damage) | 4 (4=60-79% damage) | 5 (5=80-100% damage) | 5 (5=80-100% damage) | 
CS(=O)(=O)c1cc(Cl)ccc1-c1cnn(C2CC2)c(=O)c1O [Compound 2.014] | 5 (5=80-100% damage) | 5 (5=80-100% damage) | 5 (5=80-100% damage) | 5 (5=80-100% damage) | 5 (5=80-100% damage) | 5 (5=80-100% damage) | 5 (5=80-100% damage) | 5 (5=80-100% damage) | 5 (5=80-100% damage) | 5 (5=80-100% damage) | 5 (5=80-100% damage) | 5 (5=80-100% damage) | 
Cc1ccc(-c2cnn(C)c(=O)c2O)c(S(C)(=O)=O)c1 [Compound 2.031] | 5 (5=80-100% damage) | 5 (5=80-100% damage) | 5 (5=80-100% damage) | 5 (5=80-100% damage) | 5 (5=80-100% damage) | 5 (5=80-100% damage) | 4 (4=60-79% damage) | 5 (5=80-100% damage) | 5 (5=80-100% damage) | 3 (3=40-59% damage) | 5 (5=80-100% damage) | 4 (4=60-79% damage) | 
C#Cn1ncc(-c2ccc(C(F)(F)F)cc2S(C)(=O)=O)c(O)c1=O [Compound 2.010] | 5 (5=80-100% damage) | 5 (5=80-100% damage) | 5 (5=80-100% damage) | 5 (5=80-100% damage) | 5 (5=80-100% damage) | 5 (5=80-100% damage) | 5 (5=80-100% damage) | 5 (5=80-100% damage) | 5 (5=80-100% damage) | 5 (5=80-100% damage) | 5 (5=80-100% damage) | 5 (5=80-100% damage) | 
CCn1ncc(-c2ccc(Cl)cc2S(C)(=O)=O)c(O)c1=O [Compound 2.017] | 5 (5=80-100% damage) | 5 (5=80-100% damage) | 5 (5=80-100% damage) | 5 (5=80-100% damage) | 5 (5=80-100% damage) | 5 (5=80-100% damage) | 5 (5=80-100% damage) | 5 (5=80-100% damage) | 5 (5=80-100% damage) | 5 (5=80-100% damage) | 5 (5=80-100% damage) | 5 (5=80-100% damage) | 
